{"source": "patent US20140335052A1", "about": "“COMBINATION THERAPY FOR TREATING HCV INFECTION IN AN HCV-HIV COINFECTED PATIENT POPULATION” (BOEHRINGER INGELHEIM INTERNATIONAL GMBH, priority 2012, published 2014)", "key": {"[1]": {"system": "HCV GT1", "settings": "HCV GT1 mono-infected TN patients; 240 mg QD FDV plus PegIFN/RBV; study 1220.5; cited from earlier work"}, "[2]": {"assay": "Phase III trial of FDV plus PegIFN/RBV in HCV/HIV coinfected patients: safety (adverse events, HIV RNA suppression)", "assay_type": "in vivo, human", "experimental": "(§1) Safety and Efficacy of 120 mg and 240 mg Compound (1) Once Daily in Combination With Pegylated Interferon Alpha 2a (PegIFN) and Ribavirin (RBV) for Treatment of Chronic Hepatitis C (HCV) Genotype 1 Infection in HIV/HCV Co-infected Patients. A Multinational, Randomised, Parallel Group, Open-label Trial.\n(§2) The aim of this trial is to evaluate the efficacy and the safety of Compound (1) given for 12 or 24 weeks in combination with PegIFN/RBV given for 24 or up to 48 weeks in HCV treatment-naive or relapsers patients coinfected with HIV. Patients who achieve reduction of HCV viral load according to Early Treatment Success (ETS) criteria will be randomized 1:1 to stop triple therapy at 24 weeks, or continue PegIFN/RBV for 48 week treatment duration. Patients without ETS continue PegIFN/RBV for 48 week treatment duration.\n(§3) Individuals co-infected with HCV/HIV who were HCV treatment-naïve (TN) or relapsed after previous HCV therapy were randomized to receive FDV 120 or 240 mg QD for 12 or 24 weeks, in combination with PegIFN (180 μg once weekly) and weight-based RBV for 24 or 48 weeks (response-guided). Patients on efavirenz- or PI-based antiretroviral therapy (ART) were allocated to receive FDV 240 mg or 120 mg QD, respectively; those receiving other ART or no ART were randomized to either FDV dose. Interim data remains blinded for FDV dose. Week 12 interim data are presented.\nHCV RNA was BLD at Week 4/Week 12 in 64%/64% of patients not on ART, and in 63%/85% of patients receiving ART. […] For example, in a prior study in HCV GT1 mono-infected TN patients treated with 240 mg QD FDV plus PegIFN/RBV (Boehringer Ingelheim, data on file, Clinical Trial Report for study 1220.5, U12-2567-01), HCV RNA was BLQ at week 4 and BLD at week 12 in 94% (133/142) and 93% (132/142) of patients, respectively. […] These preliminary on-treatment efficacy data are promising given that a) 17% of the coinfected patients had cirrhosis (patients with cirrhosis were not included in the 1220.5 study), b) preliminary efficacy data in HCV/HIV coinfected represent sponsor-blinded results of both FDV dose groups (e.g., 120 mg QD and 240 mg QD FDV), and c) the HCV GT1/HIV co-infected patient population is historically a more difficult-to-treat patient population with substantially lower HCV cure rates with the current standard of care treatment of pegIFN and RBV when compared to HCV GT1 monoinfected patients. The most frequent adverse events (AEs) were those known for PegIFN/RBV treatment: nausea (37%), fatigue (33%) and diarrhea (27%). Serious AEs were reported in 32 (10%) patients (including 2 deaths; none considered related to study medications). To date, 18 patients discontinued early due to AEs."}, "[3]": {"system": "HCV genotype 1", "assay": "Phase III trial of FDV plus PegIFN/RBV in HCV/HIV coinfected patients: virologic response (plasma HCV RNA), Week 12 interim data", "assay_type": "in vivo, human", "settings": "for Virologic response Week 4 BLD / Virologic response Week 12 BLD: HCV RNA <15 IU/mL, not detected; for Virologic response Week 4 BLQ / Virologic response Week 12 BLQ: HCV RNA <25 IU/mL; for Virologic response Week 4 BLQ: FDV 120 or 240 mg QD (dose blinded) plus PegIFN/RBV; for ETS (Week 4 BLQ and Week 8 BLD): early treatment success", "experimental": "For the clinical trial described below, the Compound (1) drug product will be administered as a softgel capsule lipid-based formulation containing Compound (1) sodium salt. All references to “Compound (1)” in the below clinical study is the sodium salt form.\nas §1, §2\n• Sustained Virological Response (SVR): Plasma Hepatitis C Virus (HCV) Ribonucleic Acid (RNA) level <25 IU/mL, undetected at week 12 after the planned treatment duration.\nHCV RNA level<25 IU/mL (undetected) 24 weeks after the originally planned treatment duration. • Early Treatment Success (ETS): Plasma HCV RNA level<25 IU/mL (detected or undetected) at Week 4 and HCV RNA<25 IU/mL, undetected at Week 8 and have not discontinued any study drug prior to week 24. • Alanine Aminotransferase normalisation: Alanine Aminotransferase in normal range 24 weeks after the end of the originally planned treatment duration\nInclusion criteria (selected): • 1. Chronic hepatitis C (HCV) genotype 1 infection • 2. Chronic Human Immunodeficiency Virus (HIV)-1 infection • 3. HCV treatment naive or HCV treatment experienced but only relapsers • 4. Age 18 to 70 years • 5. […] HCV viral load >1.000 IU/mL • 7. No AIDS-defining illness during 6 months prior to screening Exclusion criteria (selected): • 1. HCV infection of mixed genotype (1/2, 1/3, 1/4) • 2. Evidence of acute or chronic liver […] • 3. Hepatitis B virus (HBV) infection with presence of HBs-Ag • 4. Active malignancy or history or malignancy within the last 5 years • 5. Received concomitant systemic antiviral (other than antiretroviral), hematopoietic growth factor or immunomodulatory treatment in 28 days prior enrollment. • 6. Decompensated liver disease, as evidenced by ascites, hepatic encephalopathy, esophageal variceal bleeding, and/or laboratory values that add up to >/=7 points according tho the Child-Turcotte-Pugh classification • 7. Hemoglobin </=11 g/dL for women and </=12 g/dL for men • 8. Active autoimmune disease, including autoimmune hepatitis • 9. Known hypersensitivity to any ingredient of the study drugs\nas §3"}, "[4]": {"settings": "HCV/HIV coinfected patients (308 treated), interim"}, "[5]": {"settings": "HCV/HIV co-infected TN patient population, interim data restated in text, FDV plus PegIFN/RBV"}, "[6]": {"settings": "Relapsers (N = 69), FDV plus PegIFN/RBV"}, "[7]": {"settings": "TN patients (N = 239), FDV plus PegIFN/RBV"}, "[8]": {"settings": "Total (N = 308), FDV plus PegIFN/RBV"}, "[9]": {"settings": "patients not on ART, FDV plus PegIFN/RBV"}, "[10]": {"settings": "patients receiving ART, FDV plus PegIFN/RBV"}}, "note": "Marks after values point to notes of the source that are not given here.", "data": [{"compound": "C=C[C@@H]1C[C@]1(NC(=O)[C@@H]1C[C@@H](Oc2cc(-c3csc(C(=O)NC(C)C)n3)nc3c(Br)c(OC)ccc23)CN1C(=O)[C@@H](NC(=O)OC1CCCC1)C(C)(C)C)C(=O)O", "note": "[FDV, 1-{[4-[8-Bromo-2-(2-isopropylcarbamoyl-thiazol-4-yl)-7-methoxy-quinolin-4-yloxy]-1-(R)-(2-cyclopentyloxycarbonylamino-3,3-(S)-dimethyl-butyryl)-pyrrolidine-(S)-2-carbonyl]-amino}-2-(S)-vinyl-cyclopropane-(R)-carboxylic acid]", "values": [{"measurement": "HCV RNA BLD at week 12, number of patients of total", "setting": "[1]", "result": "132/142"}, {"measurement": "HCV RNA BLD at week 12, patients", "setting": "[1]", "result": 93, "unit": "%"}, {"measurement": "HCV RNA BLQ at week 4, number of patients of total", "setting": "[1]", "result": "133/142"}, {"measurement": "HCV RNA BLQ at week 4, patients", "setting": "[1]", "result": 94, "unit": "%"}, {"measurement": "Adverse event: diarrhea", "setting": "[2]; [4]", "result": 27, "unit": "%"}, {"measurement": "Adverse event: fatigue", "setting": "[2]; [4]", "result": 33, "unit": "%"}, {"measurement": "Adverse event: nausea", "setting": "[2]; [4]", "result": 37, "unit": "%"}, {"measurement": "Serious AEs reported, number of patients", "setting": "[2]; [4]", "result": 32, "unit": "patients"}, {"measurement": "Serious AEs reported, share of patients", "setting": "[2]; [4]", "result": 10, "unit": "%"}, {"measurement": "Deaths (among serious AEs; none considered related to study medications)", "setting": "[2]; HCV/HIV coinfected patients, interim", "result": 2, "unit": "deaths"}, {"measurement": "Patients discontinued early due to AEs", "setting": "[2]; HCV/HIV coinfected patients, to date (interim)", "result": 18, "unit": "patients"}, {"measurement": "Loss of HIV RNA suppression", "setting": "[2]; patients on ART", "result": "No patient on ART experienced loss of HIV RNA suppression"}, {"measurement": "Early virologic response rates", "setting": "[3]; HCV GT1 patients coinfected with HIV, Weeks 4 and 12, FDV plus PegIFN/RBV, interim analysis", "result": "high early virologic response rates"}, {"measurement": "HCV RNA BLD at week 12, patients", "setting": "[3]; [5]", "result": 82, "unit": "%"}, {"measurement": "HCV RNA BLQ at week 4, patients", "setting": "[3]; [5]", "result": 80, "unit": "%"}, {"measurement": "Virologic response Week 4 BLD", "setting": "[3]; [6]", "result": "51 (74) n (%)"}, {"measurement": "Virologic response Week 12 BLD", "setting": "[3]; [6]", "result": "63 (91) n (%)"}, {"measurement": "Virologic response Week 4 BLQ", "setting": "[3]; Relapsers (N = 69)", "result": "63 (91)^b n (%)"}, {"measurement": "Virologic response Week 12 BLQ", "setting": "[3]; [6]", "result": "64 (93)^d n (%)"}, {"measurement": "ETS (Week 4 BLQ and Week 8 BLD)", "setting": "[3]; [6]", "result": "61 (88) n (%)"}, {"measurement": "Virologic response Week 4 BLD", "setting": "[3]; [7]", "result": "143 (60) n (%)"}, {"measurement": "Virologic response Week 12 BLD", "setting": "[3]; [7]", "result": "195 (82) n (%)"}, {"measurement": "Virologic response Week 4 BLQ", "setting": "[3]; TN patients (N = 239)", "result": "191 (80)^a n (%)"}, {"measurement": "Virologic response Week 12 BLQ", "setting": "[3]; [7]", "result": "206 (86)^c n (%)"}, {"measurement": "ETS (Week 4 BLQ and Week 8 BLD)", "setting": "[3]; [7]", "result": "184 (77)^e n (%)"}, {"measurement": "Virologic response Week 4 BLD", "setting": "[3]; [8]", "result": "194 (63) n (%)"}, {"measurement": "Virologic response Week 12 BLD", "setting": "[3]; [8]", "result": "258 (84) n (%)"}, {"measurement": "Virologic response Week 4 BLQ", "setting": "[3]; Total (N = 308)", "result": "254 (82) n (%)"}, {"measurement": "Virologic response Week 12 BLQ", "setting": "[3]; [8]", "result": "270 (88) n (%)"}, {"measurement": "ETS (Week 4 BLQ and Week 8 BLD)", "setting": "[3]; [8]", "result": "245 (80) n (%)"}, {"measurement": "HCV RNA BLD at Week 4, patients", "setting": "[3]; [9]", "result": 64, "unit": "%"}, {"measurement": "HCV RNA BLD at week 12, patients", "setting": "[3]; [9]", "result": 64, "unit": "%"}, {"measurement": "HCV RNA BLD at Week 4, patients", "setting": "[3]; [10]", "result": 63, "unit": "%"}, {"measurement": "HCV RNA BLD at week 12, patients", "setting": "[3]; [10]", "result": 85, "unit": "%"}]}]}
